Measured values from ChEMBL document CHEMBL1201862, “PubChem BioAssay data set” (2004).
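In this assay, cells in 96-well plates receive the compound at five concentrations for 48 hours. Endpoints are linearly interpolated between the surrounding concentrations. GI50: concentration for 50% inhibition of growth.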 The source made the active and inactive calls. No stated cut-off is given here; in the data, active = GI50 up to about 1.1 µM and inactive = higher.

Tests used:
Test in all cases: DTP human tumour cell line panel, 48 h
SNB-19 = tested on: SNB-19
786-0 = tested on: 786-0
DU-145 = tested on: DU-145
OVCAR-3 = tested on: OVCAR-3
BT-549 = tested on: BT-549
U-251 = tested on: U-251
SK-OV-3 = tested on: SK-OV-3
KM12 = tested on: KM12
HT-29 = tested on: HT-29
Malme-3M = tested on: Malme-3M
HOP-92 = tested on: HOP-92
CCRF-CEM = tested on: CCRF-CEM
MCF7 = tested on: MCF7
TK-10 = tested on: TK-10
SNB-75 = tested on: SNB-75
SF-268 = tested on: SF-268
HCT-15 = tested on: HCT-15
NCI-H226 = tested on: NCI-H226
OVCAR-5 = tested on: OVCAR-5
A498 = tested on: A498

SMILES | GI50 (SNB-19) | GI50 (786-0) | GI50 (DU-145) | GI50 (OVCAR-3) | GI50 (BT-549) | GI50 (U-251) | GI50 (SK-OV-3) | GI50 (KM12) | GI50 (HT-29) | GI50 (Malme-3M) | GI50 (HOP-92) | GI50 (CCRF-CEM) | GI50 (MCF7) | GI50 (TK-10) | GI50 (SNB-75) | GI50 (SF-268) | GI50 (HCT-15) | GI50 (NCI-H226) | GI50 (OVCAR-5) | GI50 (A498)
O=C(CC(O)(C(F)(F)F)C(F)(F)F)c1cccs1 | > 10 µM (inactive) | > 10 µM (inactive) | > 10 µM (inactive) | > 10 µM (inactive) | > 10 µM (inactive) | > 10 µM (inactive) | > 10 µM (inactive) | > 10 µM (inactive) | > 10 µM (inactive) | > 10 µM (inactive) | > 10 µM (inactive) | > 10 µM (inactive) | > 10 µM (inactive) | > 10 µM (inactive) | > 10 µM (inactive) | > 10 µM (inactive) | > 10 µM |  |  | 
Cc1ccc(NC(=O)C(=O)C2C(=O)C3=C(CC2(C)C)NC2C=CC=CC2S3)c(C)c1 (stereo not drawn) | > 100 µM (inactive) | 66.4 µM (inactive) | > 100 µM (inactive) |  | > 100 µM (inactive) | 59 µM (inactive) | > 100 µM (inactive) | > 100 µM (inactive) | > 100 µM (inactive) |  | 38.1 µM (inactive) | > 100 µM (inactive) | > 100 µM (inactive) | > 100 µM (inactive) | 30.4 µM (inactive) | 36.8 µM (inactive) | > 100 µM | 56.2 µM (inactive) |  | 
O=c1[nH]c2nc3ccccc3c(=O)n2/c1=C/c1ccc(Cl)cc1 | 23.4 µM (inactive) | 24.2 µM (inactive) | 33.3 µM (inactive) | 24.3 µM (inactive) | 16.9 µM (inactive) | 28.2 µM (inactive) | > 100 µM (inactive) | 18.4 µM (inactive) |  | 28.9 µM (inactive) | 27.4 µM (inactive) | 37 µM (inactive) | 50.1 µM (inactive) | 58.5 µM (inactive) |  | 26.9 µM (inactive) | 27.2 µM |  | 63.5 µM (inactive) | 
O=C1Nc2ccccc2/C1=N/Nc1c(F)c(F)c(F)c(F)c1F | > 100 µM (inactive) | 22 µM (inactive) | 67 µM (inactive) | > 100 µM (inactive) | > 100 µM (inactive) | > 100 µM (inactive) | > 100 µM (inactive) | 16.1 µM (inactive) | 42.8 µM (inactive) |  |  | 4 µM (inactive) | 36.6 µM (inactive) | 22 µM (inactive) | 91.4 µM (inactive) | 49.5 µM (inactive) | 29.9 µM | 53 µM (inactive) | > 100 µM (inactive) | 66.8 µM (inactive)
CNC1C(O)C(NC)C2OC3(O)C(=O)CC(C)OC3OC2C1O (stereo not drawn) | > 100 µM (inactive) | > 100 µM (inactive) | > 100 µM (inactive) | > 100 µM (inactive) | > 100 µM (inactive) | > 100 µM (inactive) | > 100 µM (inactive) | > 100 µM (inactive) | > 100 µM (inactive) |  | > 100 µM (inactive) | > 100 µM (inactive) | > 100 µM (inactive) | > 100 µM (inactive) | > 100 µM (inactive) | > 100 µM (inactive) | > 100 µM | > 100 µM (inactive) | > 100 µM (inactive) | 
CN1C(=O)c2ccccc2C(O)(c2ccccc2)C1(O)c1ccccc1 (stereo not drawn) | > 100 µM (inactive) | > 100 µM (inactive) |  | > 100 µM (inactive) | 81.1 µM (inactive) | > 100 µM (inactive) | 52.4 µM (inactive) | > 100 µM (inactive) | > 100 µM (inactive) | > 100 µM (inactive) | 14.4 µM (inactive) | > 100 µM (inactive) |  | 68.7 µM (inactive) | 91 µM (inactive) | 55.5 µM (inactive) | > 100 µM | > 100 µM (inactive) | > 100 µM (inactive) | > 100 µM (inactive)
O=C1c2ccccc2-c2nc(-c3cccnc3)cc3c2c1nc1ccccc13 | > 100 µM (inactive) | > 100 µM (inactive) | > 100 µM (inactive) | 11.6 µM (inactive) | > 100 µM (inactive) | > 100 µM (inactive) | > 100 µM (inactive) | > 10 µM (inactive) | > 100 µM (inactive) | 92.9 µM (inactive) | > 100 µM (inactive) | 26.5 µM (inactive) | > 100 µM (inactive) | > 100 µM (inactive) | > 100 µM (inactive) | > 100 µM (inactive) | > 100 µM | > 100 µM (inactive) | > 100 µM (inactive) | 
COC(=O)C1=C(O)C(C(=O)OC)[C@]2(O)[C@@H](C(=O)OC)[C@H]1[C@H](C)[C@@H](c1ccccc1)[C@@H]2C(=O)OC (stereo partly drawn) | > 100 µM (inactive) | 62.2 µM (inactive) | > 100 µM (inactive) | 54 µM (inactive) | 38.8 µM (inactive) | > 100 µM (inactive) | > 100 µM (inactive) | > 100 µM (inactive) | > 100 µM (inactive) | 42.2 µM (inactive) |  | 23.2 µM (inactive) |  | > 100 µM (inactive) | > 100 µM (inactive) | 70.8 µM (inactive) | 57.8 µM | 78.9 µM (inactive) | > 100 µM (inactive) | 
Cc1ccc(-n2c(C)n[nH]c2=O)cc1 | > 100 µM (inactive) | > 100 µM (inactive) | > 100 µM (inactive) | > 100 µM (inactive) | > 100 µM (inactive) | > 100 µM (inactive) | > 100 µM (inactive) | > 100 µM (inactive) | > 100 µM (inactive) |  | > 100 µM (inactive) | > 100 µM (inactive) | > 100 µM (inactive) | > 100 µM (inactive) | > 100 µM (inactive) | > 100 µM (inactive) | > 100 µM |  | > 100 µM (inactive) | 
O=C1NC2(CCCCC2)N=C2C(Cl)CCCC12Cl (stereo not drawn) | > 100 µM (inactive) | > 100 µM (inactive) | > 100 µM (inactive) | > 100 µM (inactive) | > 100 µM (inactive) | > 100 µM (inactive) | > 100 µM (inactive) | > 100 µM (inactive) | > 100 µM (inactive) | > 100 µM (inactive) |  | > 100 µM (inactive) | > 100 µM (inactive) | > 100 µM (inactive) | > 100 µM (inactive) | > 100 µM (inactive) | > 100 µM | > 100 µM (inactive) | > 100 µM (inactive) | > 100 µM (inactive)
CC12C=CC(C)(C3C(=O)C4C(C(=O)C31)C1(C)C=CC4(C)[S+]1[O-])[S+]2[O-] (stereo not drawn) | 50.6 µM (inactive) | 51.2 µM (inactive) | > 100 µM (inactive) | > 100 µM (inactive) | > 100 µM (inactive) |  | > 100 µM (inactive) | > 100 µM (inactive) | 47.6 µM (inactive) | 83.4 µM (inactive) |  |  |  | > 100 µM (inactive) | 57.5 µM (inactive) | > 100 µM (inactive) | 87.3 µM | > 100 µM (inactive) | > 100 µM (inactive) | 
COc1ccc([N+](=O)[O-])c2c(NCC(O)CO)ccnc12 (stereo not drawn) | 93.8 µM (inactive) | 67.6 µM (inactive) | 83.9 µM (inactive) | 24.2 µM (inactive) | 20 µM (inactive) | 50.4 µM (inactive) | > 100 µM (inactive) | 37.8 µM (inactive) | 31.7 µM (inactive) | 20.3 µM (inactive) |  | 87.1 µM (inactive) | 29 µM (inactive) | 67.5 µM (inactive) | 47.8 µM (inactive) | 35.9 µM (inactive) | 16.1 µM |  | > 100 µM (inactive) | 32.4 µM (inactive)
CC(C)(C)OC(=O)n1c(Cl)c(C=O)c2ccccc21 | 86.1 µM (inactive) | 21 µM (inactive) | 19.3 µM (inactive) | 19.4 µM (inactive) | 21.3 µM (inactive) | 35.6 µM (inactive) | > 100 µM (inactive) | 18.4 µM (inactive) | 30.5 µM (inactive) | 19.1 µM (inactive) | 30.9 µM (inactive) | 27.9 µM (inactive) |  | 25.6 µM (inactive) | 68.5 µM (inactive) | 17.9 µM (inactive) | 27.1 µM |  | 35.5 µM (inactive) | 43.6 µM (inactive)
CCN(CC)C(=S)N/N=C(/C)c1cccc(/C(C)=N\NC(=S)N(CC)CC)n1 | 4.39 µM (inactive) | 1.45 µM (inactive) | 0.414 µM (active) | 1.35 µM (inactive) |  | 2.34 µM (inactive) | 1.96 µM (inactive) | 0.26 µM (active) | 3.52 µM (inactive) | 1.45 µM (inactive) | 1.46 µM (inactive) | 0.389 µM (active) | 2.04 µM (inactive) | 1.27 µM (inactive) | 3.21 µM (inactive) | 0.334 µM (active) | 2.3 µM | 1.56 µM (inactive) | 3.31 µM (inactive) | 1.89 µM (inactive)
Cc1ccc(S(=O)(=O)c2c(O)c3ccc(O)c(C)c3oc2=O)cc1 | > 100 µM (inactive) | > 100 µM (inactive) | > 100 µM (inactive) | > 100 µM (inactive) | > 100 µM (inactive) | > 100 µM (inactive) | > 100 µM (inactive) | > 100 µM (inactive) | > 100 µM (inactive) | > 100 µM (inactive) | > 100 µM (inactive) | > 100 µM (inactive) | > 100 µM (inactive) | > 100 µM (inactive) | > 100 µM (inactive) | > 100 µM (inactive) | > 100 µM | > 100 µM (inactive) | > 100 µM (inactive) | 
COC(=O)C1=C(C)NC(C)=C(C(=O)OCCCN2CCC(c3ccccc3)(c3ccccc3)CC2)[C@H]1c1cccc([N+](=O)[O-])c1 [NIGULDIPINE] | 1.7 µM (inactive) | 1.61 µM (inactive) | 1.86 µM (inactive) | 1.46 µM (inactive) |  | 1.8 µM (inactive) | 5.24 µM (inactive) | 1.77 µM (inactive) | 1.3 µM (inactive) | 2.07 µM (inactive) | 1.39 µM (inactive) | 1.14 µM (inactive) | 2.07 µM (inactive) | 2.91 µM (inactive) | 1.37 µM (inactive) | 1.79 µM (inactive) | 1.94 µM | 3.25 µM (inactive) | 2.9 µM (inactive) | 4.53 µM (inactive)
